# Laboratory results reported in patent publication US12421249B2, “Inhibitors of APOL1 and methods of using same” (Vertex Pharmaceuticals Incorporated, priority 2020, dated 2025).
# Target: T1, APOL1 (Homo sapiens, UniProt O14791)
# T1 sequence (O14791 1-398 S342G/I384M): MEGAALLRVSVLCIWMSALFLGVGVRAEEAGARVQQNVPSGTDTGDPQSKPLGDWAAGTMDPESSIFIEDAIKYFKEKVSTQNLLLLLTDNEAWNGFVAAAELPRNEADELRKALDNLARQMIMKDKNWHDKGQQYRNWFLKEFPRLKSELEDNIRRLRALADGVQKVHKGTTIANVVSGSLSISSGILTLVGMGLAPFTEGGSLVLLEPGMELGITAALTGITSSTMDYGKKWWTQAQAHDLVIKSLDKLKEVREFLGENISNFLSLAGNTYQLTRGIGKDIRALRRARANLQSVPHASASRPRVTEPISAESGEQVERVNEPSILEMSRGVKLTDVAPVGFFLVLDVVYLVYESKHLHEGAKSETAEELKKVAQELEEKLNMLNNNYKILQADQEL
# Test: Multi-Tox Assay (MultiTox-Fluor Multiplex Cytotoxicity Assay in tet-inducible APOL1 T-REx-HEK293 cells; Table 46 does not say which APOL1 variant G0/G1/G2)
# Format: cell-based
# Details: APOL1 variant not given
row,Structure (SMILES),Multi-Tox Assay Max Activity (%)
1,C[C@H]1C[C@@]2(C[C@@H](c3cn(Cc4ccc(O)nc4)nn3)N1)OCC(F)(F)c1cc(Cl)sc12 [Compound 316],95.0%
2,C[C@H]1C[C@@]2(C[C@@H](c3cn(Cc4cnccn4)nn3)N1)OCC(F)(F)c1cc(Cl)sc12 [Compound 317],98.0%
3,Cc1ncc(Cn2cc([C@@H]3C[C@]4(C[C@H](C)N3)OCC(F)(F)c3cc(Cl)sc34)nn2)cn1 [Compound 318],99.0%
4,COc1cccc(Cn2cc([C@@H]3C[C@]4(C[C@H](C)N3)OCC(F)(F)c3cc(Cl)sc34)nn2)c1 [Compound 319],95.0%
5,C[C@H]1C[C@@]2(C[C@@H](c3cn(Cc4cccc(O)c4)nn3)N1)OCC(F)(F)c1cc(Cl)sc12 [Compound 320],95.0%
6,C[C@H]1C[C@@]2(C[C@@H](c3cn(Cc4cccnn4)nn3)N1)OCC(F)(F)c1cc(Cl)sc12 [Compound 321],99.0%
7,C[C@H]1C[C@@]2(C[C@@H](c3cn(CC(O)c4ccccc4)nn3)N1)OCC(F)(F)c1cc(Cl)sc12 (some centres unmarked) [Compound 322],97.0%
8,COCCn1cc([C@@H]2C[C@]3(C[C@H](C)N2)OCC(F)(F)c2cc(Cl)sc23)nn1 [Compound 323],100.0%
9,C[C@H]1C[C@@]2(C[C@@H](c3cn(CC(F)F)nn3)N1)OCC(F)(F)c1cc(Cl)sc12 [Compound 324],96.0%
10,CCC(O)Cn1cc([C@@H]2C[C@]3(C[C@H](C)N2)OCC(F)(F)c2cc(Cl)sc23)nn1 (some centres unmarked) [Compound 325],98.0%
11,Cc1c(Cn2cc([C@@H]3C[C@]4(C[C@H](C)N3)OCC(F)(F)c3cc(Cl)sc34)nn2)cnn1C [Compound 326],97.0%
12,CC(C)N1CC(Cn2cc([C@@H]3C[C@]4(C[C@H](C)N3)OCC(F)(F)c3cc(Cl)sc34)nn2)CC1=O (some centres unmarked) [Compound 327],98.0%
13,C[C@H]1C[C@@]2(C[C@@H](c3cn(CCC(N)=O)nn3)N1)OCC(F)(F)c1cc(Cl)sc12 [Compound 328],100.0%
14,CCn1cc(Cn2cc([C@@H]3C[C@]4(C[C@H](C)N3)OCC(F)(F)c3cc(Cl)sc34)nn2)cn1 [Compound 330],99.0%
15,C[C@H]1C[C@@]2(C[C@@H](c3cn(Cc4cocn4)nn3)N1)OCC(F)(F)c1cc(Cl)sc12 [Compound 331],98.0%
16,C[C@H]1C[C@@]2(C[C@@H](c3cn(Cc4ccccn4)nn3)N1)OCC(F)(F)c1cc(Cl)sc12 [Compound 332],96.0%
17,COc1cc(F)cc(Cn2cc([C@@H]3C[C@]4(C[C@H](C)N3)OCC(F)(F)c3cc(Cl)sc34)nn2)c1 [Compound 333],97.0%
18,Cc1ccc(Cn2cc([C@@H]3C[C@]4(C[C@H](C)N3)OCC(F)(F)c3cc(Cl)sc34)nn2)nc1 [Compound 334],96.0%
19,COc1ccc(Cn2cc([C@@H]3C[C@]4(C[C@H](C)N3)OCC(F)(F)c3cc(Cl)sc34)nn2)cc1 [Compound 335],96.0%
20,Cc1cc(Cn2cc([C@@H]3C[C@]4(C[C@H](C)N3)OCC(F)(F)c3cc(Cl)sc34)nn2)ccn1 [Compound 336],99.0%
21,Cc1nc(Cn2cc([C@@H]3C[C@]4(C[C@H](C)N3)OCC(F)(F)c3cc(Cl)sc34)nn2)oc1C [Compound 337],99.0%
22,Cc1nnc(Cn2cc([C@@H]3C[C@]4(C[C@H](C)N3)OCC(F)(F)c3cc(Cl)sc34)nn2)[nH]1 [Compound 339],97.0%

# Same assay, conditions: IP50 = IC50 for cell proliferation, APOL1 variant not given
row,Structure (SMILES),IC50
1,C[C@H]1C[C@@]2(C[C@@H](c3cn(Cc4ccc(O)nc4)nn3)N1)OCC(F)(F)c1cc(Cl)sc12 [Compound 316],50 to 500 nM
2,C[C@H]1C[C@@]2(C[C@@H](c3cn(Cc4cnccn4)nn3)N1)OCC(F)(F)c1cc(Cl)sc12 [Compound 317],50 to 500 nM
3,Cc1ncc(Cn2cc([C@@H]3C[C@]4(C[C@H](C)N3)OCC(F)(F)c3cc(Cl)sc34)nn2)cn1 [Compound 318],< 50 nM
4,COc1cccc(Cn2cc([C@@H]3C[C@]4(C[C@H](C)N3)OCC(F)(F)c3cc(Cl)sc34)nn2)c1 [Compound 319],50 to 500 nM
5,C[C@H]1C[C@@]2(C[C@@H](c3cn(Cc4cccc(O)c4)nn3)N1)OCC(F)(F)c1cc(Cl)sc12 [Compound 320],50 to 500 nM
6,C[C@H]1C[C@@]2(C[C@@H](c3cn(Cc4cccnn4)nn3)N1)OCC(F)(F)c1cc(Cl)sc12 [Compound 321],< 50 nM
7,C[C@H]1C[C@@]2(C[C@@H](c3cn(CC(O)c4ccccc4)nn3)N1)OCC(F)(F)c1cc(Cl)sc12 (some centres unmarked) [Compound 322],50 to 500 nM
8,COCCn1cc([C@@H]2C[C@]3(C[C@H](C)N2)OCC(F)(F)c2cc(Cl)sc23)nn1 [Compound 323],< 50 nM
9,C[C@H]1C[C@@]2(C[C@@H](c3cn(CC(F)F)nn3)N1)OCC(F)(F)c1cc(Cl)sc12 [Compound 324],50 to 500 nM
10,CCC(O)Cn1cc([C@@H]2C[C@]3(C[C@H](C)N2)OCC(F)(F)c2cc(Cl)sc23)nn1 (some centres unmarked) [Compound 325],< 50 nM
11,Cc1c(Cn2cc([C@@H]3C[C@]4(C[C@H](C)N3)OCC(F)(F)c3cc(Cl)sc34)nn2)cnn1C [Compound 326],50 to 500 nM
12,CC(C)N1CC(Cn2cc([C@@H]3C[C@]4(C[C@H](C)N3)OCC(F)(F)c3cc(Cl)sc34)nn2)CC1=O (some centres unmarked) [Compound 327],< 50 nM
13,C[C@H]1C[C@@]2(C[C@@H](c3cn(CCC(N)=O)nn3)N1)OCC(F)(F)c1cc(Cl)sc12 [Compound 328],< 50 nM
14,CCn1cc(Cn2cc([C@@H]3C[C@]4(C[C@H](C)N3)OCC(F)(F)c3cc(Cl)sc34)nn2)cn1 [Compound 330],< 50 nM
15,C[C@H]1C[C@@]2(C[C@@H](c3cn(Cc4cocn4)nn3)N1)OCC(F)(F)c1cc(Cl)sc12 [Compound 331],< 50 nM
16,C[C@H]1C[C@@]2(C[C@@H](c3cn(Cc4ccccn4)nn3)N1)OCC(F)(F)c1cc(Cl)sc12 [Compound 332],50 to 500 nM
17,COc1cc(F)cc(Cn2cc([C@@H]3C[C@]4(C[C@H](C)N3)OCC(F)(F)c3cc(Cl)sc34)nn2)c1 [Compound 333],50 to 500 nM
18,Cc1ccc(Cn2cc([C@@H]3C[C@]4(C[C@H](C)N3)OCC(F)(F)c3cc(Cl)sc34)nn2)nc1 [Compound 334],50 to 500 nM
19,COc1ccc(Cn2cc([C@@H]3C[C@]4(C[C@H](C)N3)OCC(F)(F)c3cc(Cl)sc34)nn2)cc1 [Compound 335],50 to 500 nM
20,Cc1cc(Cn2cc([C@@H]3C[C@]4(C[C@H](C)N3)OCC(F)(F)c3cc(Cl)sc34)nn2)ccn1 [Compound 336],< 50 nM
21,Cc1nc(Cn2cc([C@@H]3C[C@]4(C[C@H](C)N3)OCC(F)(F)c3cc(Cl)sc34)nn2)oc1C [Compound 337],< 50 nM
22,Cc1nnc(Cn2cc([C@@H]3C[C@]4(C[C@H](C)N3)OCC(F)(F)c3cc(Cl)sc34)nn2)[nH]1 [Compound 339],50 to 500 nM
